Assay: Osmolality of various concentrations of levetiracetam in water
Assay type: physicochemical
Excerpt: Sodium chloride and other halide salts that affect the tonicity of the solution are preferably omitted from the formulations and unnecessary because levetiracetam itself yields an isotonic (or slightly above isotonic) formulation in the formulations of the present invention. The following table gives the osmolality of various concentrations of levetiracetam in water: […]

Osmolality (levetiracetam conc. 2.75 mg/ml in water): 16 mOsm/kg
Osmolality (levetiracetam conc. 45 mg/ml in water): 262 mOsm/kg
Osmolality (levetiracetam conc. 50 mg/ml in water): 292 mOsm/kg
Osmolality (levetiracetam conc. 60 mg/ml in water): 348 mOsm/kg
Osmolality (levetiracetam conc. 65 mg/ml in water): 377 mOsm/kg
SMILES: CC[C@@H](C(N)=O)N1CCCC1=O [Levetiracetam, (−)-(S)-α-ethyl-2-oxo-1-pyrrolidine acetamide]

— US11590105B2, “Intrathecal administration of levetiracetam” (Sintetica S.A., priority 2019, dated 2023)
